Key:
DLD-1 = test: Cytotoxicity against human DLD1 cells assessed as growth inhibition; assay type: functional, cell-based
HCT-116 [1] = test: Cytotoxicity against human HCT-116 cells; assay type: functional, cell-based
[2] = biological target: T1, von Hippel-Lindau disease tumor suppressor/Bromodomain-containing protein 4 (Homo sapiens, UniProt O60885+P40337); test: PROTAC activity at BRD4/VHL E3 ligase in human HEK293 cells assessed as degradation of BRD4 incubated for 18 hrs by Nano-Glo HiBiT assay; assay type: cell-based
T1 sequence (P40337 whole entry, looked up, other chains not shown): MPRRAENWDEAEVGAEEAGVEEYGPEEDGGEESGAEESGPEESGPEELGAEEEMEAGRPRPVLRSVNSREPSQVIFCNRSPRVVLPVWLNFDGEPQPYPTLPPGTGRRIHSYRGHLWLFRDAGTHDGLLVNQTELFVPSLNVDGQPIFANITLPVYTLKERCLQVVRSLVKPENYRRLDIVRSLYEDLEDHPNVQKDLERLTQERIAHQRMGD

MCF7 [3] = test: Antiproliferative activity against human MCF7 cells assessed as reduction in cell viability incubated for 48 hrs by MTT assay; assay type: functional, cell-based; details: MCF7, 48 h
HepG2 [4] = test: Antiproliferative activity against human HepG2 cells assessed as reduction in cell viability incubated for 48 hrs by MTT assay; assay type: functional, cell-based; details: HepG2, 48 h
MDA-MB-231 [5] = test: Antiproliferative activity against human MDA-MB-231 cells assessed as reduction in cell viability incubated for 48 hrs by MTT assay; assay type: functional, cell-based; details: MDA-MB-231, 48 h
[6] = Half life in human at 1 mg/kg, iv by LC-MS/MS analysis; assay type: ADME, organism-based; details: in vivo
HCT-15 = test: Antiproliferative activity against human HCT-15 cells assessed as reduction in cell viability incubated for 48 hrs by MTT assay; assay type: functional, cell-based; details: HCT-15, 48 h
[7] = Half life in human at 10 mg/kg, po by LC-MS/MS analysis; assay type: ADME, organism-based; details: in vivo
BXPC-3 = test: Antiproliferative activity against human BXPC-3 cells assessed as reduction in cell viability incubated for 48 hrs by MTT assay; assay type: functional, cell-based; details: BXPC-3, 48 h
[8] = Oral bioavailability in human at 10 mg/kg; assay type: ADME, organism-based; details: in vivo
A549 [9] = test: Antiproliferative activity against human A549 cells assessed as reduction in cell viability incubated for 48 hrs by MTT assay; assay type: functional, cell-based; details: A549, 48 h
PANC-1 = test: Antiproliferative activity against human PANC-1 cells assessed as reduction in cell viability incubated for 48 hrs by MTT assay; assay type: functional, cell-based; details: PANC-1, 48 h
[10] = Antiproliferative activity against HUVEC cells assessed as cell growth inhibition measured after 72 hrs by crystal violet staining based analysis; assay type: toxicity; details: human
[11] = Antiproliferative activity against human BEAS-2B cells assessed as reduction in cell viability incubated for 48 hrs by MTT assay; assay type: toxicity, cell-based
Focal adhesion kinase 1 [12] = biological target: T2, Focal adhesion kinase 1 (Homo sapiens, UniProt Q05397); test: Inhibition of FAK (unknown origin)
Target sequence in this assay (Q05397 whole entry): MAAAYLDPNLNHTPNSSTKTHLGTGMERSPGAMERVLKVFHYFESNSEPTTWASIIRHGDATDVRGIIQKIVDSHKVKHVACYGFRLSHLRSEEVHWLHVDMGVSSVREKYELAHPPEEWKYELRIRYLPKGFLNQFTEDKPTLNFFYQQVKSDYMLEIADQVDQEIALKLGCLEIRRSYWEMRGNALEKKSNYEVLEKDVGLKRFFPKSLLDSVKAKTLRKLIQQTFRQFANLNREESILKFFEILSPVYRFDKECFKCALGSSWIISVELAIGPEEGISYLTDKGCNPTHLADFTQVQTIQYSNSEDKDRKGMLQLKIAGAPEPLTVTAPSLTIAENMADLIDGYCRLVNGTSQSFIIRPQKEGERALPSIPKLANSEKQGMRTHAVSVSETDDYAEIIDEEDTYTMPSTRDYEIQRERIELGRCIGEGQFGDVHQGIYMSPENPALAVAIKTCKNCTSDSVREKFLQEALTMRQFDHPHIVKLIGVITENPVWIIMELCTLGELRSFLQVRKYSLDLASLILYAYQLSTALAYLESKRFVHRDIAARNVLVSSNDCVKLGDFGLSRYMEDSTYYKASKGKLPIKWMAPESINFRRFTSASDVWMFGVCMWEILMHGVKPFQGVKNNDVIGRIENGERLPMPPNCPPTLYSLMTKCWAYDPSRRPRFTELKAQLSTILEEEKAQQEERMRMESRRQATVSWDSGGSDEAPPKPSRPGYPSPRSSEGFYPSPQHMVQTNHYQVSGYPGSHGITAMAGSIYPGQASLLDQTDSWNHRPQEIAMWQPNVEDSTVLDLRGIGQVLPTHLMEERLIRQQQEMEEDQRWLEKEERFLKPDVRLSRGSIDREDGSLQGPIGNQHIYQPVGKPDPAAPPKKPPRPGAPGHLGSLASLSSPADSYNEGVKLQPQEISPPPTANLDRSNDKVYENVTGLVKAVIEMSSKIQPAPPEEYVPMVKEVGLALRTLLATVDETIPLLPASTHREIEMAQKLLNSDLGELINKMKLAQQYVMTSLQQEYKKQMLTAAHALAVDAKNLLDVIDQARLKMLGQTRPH

U-87 MG = test: Antiproliferative activity against human U-87 MG cells assessed as reduction in cell viability incubated for 48 hrs by MTT assay; assay type: functional, cell-based, U-87MG ATCC
[13] = Half life in human at 20 mg/kg, po; assay type: ADME, organism-based; details: in vivo
[14] = Antiproliferative activity against human PC-3 cells; assay type: functional, cell-based
MDA-MB-231 [15] = test: Antiproliferative activity against human MDA-MB-231 cells; assay type: functional, cell-based
ECa-109 cell line = test: Antiproliferative activity against human EC109 cells; assay type: functional, cell-based
DU-145 = test: Antiproliferative activity against human DU-145 cells; assay type: functional, cell-based
Histone deacetylase 1 = Histone deacetylase 1 (Homo sapiens, UniProt Q13547); test: Inhibition of HDAC1 (unknown origin)
Chain of Histone deacetylase 1 (Q13547 whole entry): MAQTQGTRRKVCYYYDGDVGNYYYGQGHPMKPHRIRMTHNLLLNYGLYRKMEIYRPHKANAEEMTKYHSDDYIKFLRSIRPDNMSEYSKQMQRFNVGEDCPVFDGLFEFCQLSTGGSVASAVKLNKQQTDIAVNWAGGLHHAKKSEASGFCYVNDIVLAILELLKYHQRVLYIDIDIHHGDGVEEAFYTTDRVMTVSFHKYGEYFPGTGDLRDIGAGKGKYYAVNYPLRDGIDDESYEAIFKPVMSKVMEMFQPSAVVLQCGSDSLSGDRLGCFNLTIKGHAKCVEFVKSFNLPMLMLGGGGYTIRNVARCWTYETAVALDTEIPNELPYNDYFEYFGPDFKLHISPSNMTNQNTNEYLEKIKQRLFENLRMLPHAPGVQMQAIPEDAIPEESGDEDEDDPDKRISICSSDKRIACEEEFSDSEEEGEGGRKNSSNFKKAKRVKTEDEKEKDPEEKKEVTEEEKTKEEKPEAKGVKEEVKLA

BGC-823 = test: Antiproliferative activity against human BGC-823 cells; assay type: functional, cell-based
MCF7 [16] = test: Antiproliferative activity against human MCF7 cells; assay type: functional, cell-based
MGC-803 [17] = test: Antiproliferative activity against human MGC-803 cells; assay type: functional, cell-based
HCT-116 [18] = test: Antiproliferative activity against human HCT-116 cells; assay type: functional, cell-based
Histone deacetylase 2 = Histone deacetylase 2 (Homo sapiens, UniProt Q92769); test: Inhibition of HDAC2 (unknown origin)
TE-1 = test: Antiproliferative activity against human TE-1 cells; assay type: functional, cell-based
A549 [19] = test: Antiproliferative activity against human A549 cells; assay type: functional, cell-based
HGC-27 = test: Antiproliferative activity against human HGC-27 cells; assay type: functional, cell-based
KYSE-450 = test: Antiproliferative activity against human KYSE-450 cells; assay type: functional, cell-based
NCI-H520 = test: Antiproliferative activity against human NCI-H520 cells; assay type: functional, cell-based
Histone deacetylase 3 = Histone deacetylase 3 (Homo sapiens, UniProt O15379); test: Inhibition of HDAC3 (unknown origin)
Chain of Histone deacetylase 3 (O15379 whole entry): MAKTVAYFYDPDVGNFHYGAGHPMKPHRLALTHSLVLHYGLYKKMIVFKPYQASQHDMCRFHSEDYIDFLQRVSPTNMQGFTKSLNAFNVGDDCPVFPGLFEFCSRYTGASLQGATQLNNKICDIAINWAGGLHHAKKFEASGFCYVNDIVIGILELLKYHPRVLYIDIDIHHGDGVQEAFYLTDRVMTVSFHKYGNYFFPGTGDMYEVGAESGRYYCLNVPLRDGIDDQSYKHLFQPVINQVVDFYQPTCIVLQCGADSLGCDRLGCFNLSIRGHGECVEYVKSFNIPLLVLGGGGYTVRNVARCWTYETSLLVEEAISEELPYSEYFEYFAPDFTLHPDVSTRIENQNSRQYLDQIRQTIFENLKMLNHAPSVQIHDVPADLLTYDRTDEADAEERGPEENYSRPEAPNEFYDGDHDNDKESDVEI

HepG2 [20] = test: Antiproliferative activity against human HepG2 cells assessed as reduction in cell viability incubated for 72 hrs by MTT assay; assay type: functional, cell-based; details: HepG2, 72 h
SGC-7901 = test: Antiproliferative activity against human SGC-7901 cells assessed as reduction in cell viability incubated for 72 hrs by MTT assay; assay type: functional, cell-based; details: SGC-7901, 72 h
A-375 = test: Antiproliferative activity against human A-375 cells assessed as reduction in cell viability incubated for 72 hrs by MTT assay; assay type: functional, cell-based; details: A-375, 72 h
MCF7 [21] = test: Antiproliferative activity against human MCF7 cells assessed as reduction in cell viability incubated for 72 hrs by MTT assay; assay type: functional, cell-based; details: MCF7, 72 h
HCT-116 [22] = test: Antiproliferative activity against human HCT-116 cells assessed as reduction in cell viability by MTT assay; assay type: functional, cell-based
MDA-MB-231 [23] = test: Antiproliferative activity against human MDA-MB-231 cells assessed as reduction in cell viability by MTT assay; assay type: functional, cell-based
HeLa = test: Antiproliferative activity against human HeLa cells assessed as reduction in cell viability by MTT assay; assay type: functional, cell-based
Insulin receptor = Insulin receptor (Homo sapiens, UniProt P06213); test: Inhibition of INSR (unknown origin)
Chain of Insulin receptor (P06213 28-758 limits assumed): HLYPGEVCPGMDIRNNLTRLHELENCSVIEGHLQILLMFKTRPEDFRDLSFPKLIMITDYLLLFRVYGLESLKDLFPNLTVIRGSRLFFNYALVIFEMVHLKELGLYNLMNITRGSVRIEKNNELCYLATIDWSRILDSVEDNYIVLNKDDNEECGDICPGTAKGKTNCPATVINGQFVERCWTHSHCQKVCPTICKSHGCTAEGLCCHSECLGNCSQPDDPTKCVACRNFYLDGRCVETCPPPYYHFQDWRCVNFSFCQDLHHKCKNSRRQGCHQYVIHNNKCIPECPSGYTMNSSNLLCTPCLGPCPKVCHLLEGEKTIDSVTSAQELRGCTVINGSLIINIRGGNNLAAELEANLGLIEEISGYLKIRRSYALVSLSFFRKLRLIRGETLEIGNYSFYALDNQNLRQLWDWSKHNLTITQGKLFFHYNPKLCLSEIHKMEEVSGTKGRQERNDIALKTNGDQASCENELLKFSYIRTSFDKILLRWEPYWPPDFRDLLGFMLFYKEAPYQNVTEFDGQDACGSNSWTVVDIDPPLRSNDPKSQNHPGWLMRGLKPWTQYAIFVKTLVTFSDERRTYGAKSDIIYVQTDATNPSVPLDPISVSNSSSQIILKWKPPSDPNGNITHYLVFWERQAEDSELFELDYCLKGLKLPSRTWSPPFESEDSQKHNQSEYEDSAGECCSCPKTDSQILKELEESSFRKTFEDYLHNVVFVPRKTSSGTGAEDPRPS
Chain of Insulin receptor (P06213 763-1382 limits assumed): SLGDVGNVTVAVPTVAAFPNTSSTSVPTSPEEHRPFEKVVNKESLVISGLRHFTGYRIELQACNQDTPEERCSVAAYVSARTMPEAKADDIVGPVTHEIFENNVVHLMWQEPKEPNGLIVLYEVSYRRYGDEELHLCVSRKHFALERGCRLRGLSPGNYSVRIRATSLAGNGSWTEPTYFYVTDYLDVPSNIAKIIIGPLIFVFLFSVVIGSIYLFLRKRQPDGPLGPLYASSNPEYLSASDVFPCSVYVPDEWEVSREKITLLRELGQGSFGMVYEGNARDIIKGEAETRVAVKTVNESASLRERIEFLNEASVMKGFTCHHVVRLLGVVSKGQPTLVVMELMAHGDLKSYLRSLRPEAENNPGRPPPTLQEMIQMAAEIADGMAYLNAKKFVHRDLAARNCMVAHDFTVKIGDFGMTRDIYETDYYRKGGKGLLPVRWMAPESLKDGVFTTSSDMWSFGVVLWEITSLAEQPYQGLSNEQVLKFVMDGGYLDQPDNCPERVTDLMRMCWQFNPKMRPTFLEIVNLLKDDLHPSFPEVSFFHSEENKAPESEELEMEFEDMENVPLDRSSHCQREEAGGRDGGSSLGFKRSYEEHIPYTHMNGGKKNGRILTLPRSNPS

Focal adhesion kinase 1 [24] = biological target: T2, Focal adhesion kinase 1; test: Inhibition of FAK (unknown origin) at 0.5 uM relative to control
Target sequence in this assay (Q05397 2-1052 limits assumed): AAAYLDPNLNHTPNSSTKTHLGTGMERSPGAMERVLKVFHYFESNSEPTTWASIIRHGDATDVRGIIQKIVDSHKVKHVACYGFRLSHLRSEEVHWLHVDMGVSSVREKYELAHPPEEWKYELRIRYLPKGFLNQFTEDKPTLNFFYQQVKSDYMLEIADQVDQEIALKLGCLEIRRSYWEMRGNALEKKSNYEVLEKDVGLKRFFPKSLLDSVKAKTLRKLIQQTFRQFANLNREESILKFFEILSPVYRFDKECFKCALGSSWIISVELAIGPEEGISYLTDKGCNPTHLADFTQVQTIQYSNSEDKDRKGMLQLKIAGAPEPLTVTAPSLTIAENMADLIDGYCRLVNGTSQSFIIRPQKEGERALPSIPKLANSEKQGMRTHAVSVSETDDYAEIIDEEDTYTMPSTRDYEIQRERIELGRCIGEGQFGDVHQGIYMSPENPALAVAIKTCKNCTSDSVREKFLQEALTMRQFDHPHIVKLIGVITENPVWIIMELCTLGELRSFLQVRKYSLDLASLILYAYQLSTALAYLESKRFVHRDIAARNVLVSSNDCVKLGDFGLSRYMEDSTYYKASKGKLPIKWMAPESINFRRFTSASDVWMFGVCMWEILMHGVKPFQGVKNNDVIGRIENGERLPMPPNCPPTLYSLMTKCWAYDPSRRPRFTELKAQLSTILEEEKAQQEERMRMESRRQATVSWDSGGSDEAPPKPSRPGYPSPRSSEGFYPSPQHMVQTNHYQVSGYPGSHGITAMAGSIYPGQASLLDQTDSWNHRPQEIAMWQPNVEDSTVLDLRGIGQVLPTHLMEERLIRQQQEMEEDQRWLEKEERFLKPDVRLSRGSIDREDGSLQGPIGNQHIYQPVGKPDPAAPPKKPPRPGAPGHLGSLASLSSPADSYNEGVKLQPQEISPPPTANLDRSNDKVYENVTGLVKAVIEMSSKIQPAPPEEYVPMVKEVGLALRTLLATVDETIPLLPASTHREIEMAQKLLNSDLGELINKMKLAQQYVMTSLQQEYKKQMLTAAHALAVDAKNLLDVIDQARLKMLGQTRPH

[25] = Half life in human plasma; assay type: ADME, cell-free
Focal adhesion kinase 1 [26] = biological target: T2, Focal adhesion kinase 1; test: Inhibition of FAK (unknown origin) at 0.1 uM relative to control
Target sequence in this assay (Q05397 2-1052 limits assumed): as above

[27] = biological target: T1, von Hippel-Lindau disease tumor suppressor/Bromodomain-containing protein 4; test: PROTAC activity at BRD4/VHL E3 ligase in human HEK293 cells assessed as maximal degradation of BRD4 at 10 nM incubated for 18 hrs by Nano-Glo HiBiT assay relative to control; assay type: cell-based
MGC-803 [28] = test: Antitumor activity against human MGC-803 cells xenografted in nude mouse assessed as tumor inhibition at 20 mg/kg, ip administered once every two days for 21 days relative to control; assay type: functional; parameters: scale not given: the % may be the effect or the level left; details: time 21 day

## COc1cc2nc(-c3ccc(C(F)(F)F)cc3)cc(OCCCNCC3CCCO3)c2cc1OC (stereo unspecified)
DLD-1
  IC50: 2.48 µM
HCT-116 [1]
  IC50: 5.68 µM

## Clc1ccc(-c2cc(OCCCN3CCOCC3)c3cc(-c4ccco4)ccc3n2)cc1
DLD-1
  IC50: 2.09 µM
HCT-116 [1]
  IC50: 2.96 µM

## Cc1ncsc1-c1ccc(CNC(=O)[C@@H]2C[C@@H](O)CN2C(=O)[C@@H](NC(=O)CCOCCOc2ccc(Nc3ncc(C(F)(F)F)c(NCc4cccc(N(C)S(C)(=O)=O)c4)n3)cc2)C(C)(C)C)cc1
[2]
  DC50: 0.003 µM

## Clc1cccc(Cn2ccc3cnc(NC4CCC(N5CCNCC5)CC4)nc32)c1 (stereo unspecified)
MCF7 [3]
  IC50: 2 µM
HepG2 [4]
  IC50: 3.5 µM
MDA-MB-231 [5]
  IC50: 1.6 µM
[6]
  half-life: 2.41 h
HCT-15
  IC50: 0.9 µM
[7]
  half-life: 3.8 h
BXPC-3
  IC50: 2.3 µM
[8]
  bioavailability: 77.6%
A549 [9]
  IC50: 0.8 µM
PANC-1
  IC50: 3.7 µM
[10]
  IC50 at 72 h: 6.9 µM
[11]
  IC50 at 48 h: 7.1 µM
Focal adhesion kinase 1 [12]
  IC50: 0.0099 µM
U-87 MG
  IC50: 12.7 µM

## COc1cc(C(=O)NC2CCNCC2)ccc1Nc1nc(Oc2cccc3c2C(=O)CC3)c2cc[nH]c2n1
[13]
  half-life: 4.08 h

## CNC(=O)c1ccccc1Nc1nc(Nc2ccc(NC(=O)CCCCCCC(=O)NO)cc2)ncc1Cl
[14]
  IC50: 0.667 µM
MDA-MB-231 [15]
  IC50: 1.89 µM
ECa-109 cell line
  IC50: 0.981 µM
DU-145
  IC50: 0.467 µM
Histone deacetylase 1
  IC50: 0.526 µM
BGC-823
  IC50: 0.194 µM
MCF7 [16]
  IC50: 0.834 µM
MGC-803 [17]
  IC50: 0.182 µM
HCT-116 [18]
  IC50: 0.248 µM
Histone deacetylase 2
  IC50: 0.629 µM
TE-1
  IC50: 1.13 µM
A549 [19]
  IC50: 1.79 µM
HGC-27
  IC50: 0.512 µM
KYSE-450
  IC50: 0.619 µM
NCI-H520
  IC50: 2.58 µM
Histone deacetylase 3
  IC50: 1.05 µM

## O=C(CSC1Nc2ccccc2C(=O)N1c1ccccc1)N1CCN(c2ccccc2Cl)CC1 (stereo unspecified)
HepG2 [20]
  IC50: 5.56 µM
SGC-7901
  IC50: 11.7 µM
A-375
  IC50: 7.13 µM
MCF7 [21]
  IC50: 7.92 µM

## CNC(=O)c1ccccc1Nc1nc(Nc2ccc(N3CCN(C(=S)SCCCN4CCOCC4)CC3)cc2)ncc1Cl
HCT-116 [22]
  IC50: 0.64 µM
MDA-MB-231 [23]
  IC50: 4.19 µM
HeLa
  IC50: 2.68 µM
Focal adhesion kinase 1 [12]
  IC50: 0.052 µM
Insulin receptor
  IC50: 0.168 µM

## COc1cc2nc(-c3ccc(C(F)(F)F)cc3)cc(OCCCN3CCN(C)CC3)c2cc1OC
DLD-1
  IC50: 2.25 µM
HCT-116 [1]
  IC50: 3.09 µM

## CN(c1ncccc1CNc1nc(Nc2ccc(N3CCN(CCCCCCC(=O)NCCNc4cccc5c4C(=O)N(C4CCC(=O)NC4=O)C5=O)CC3)cc2)ncc1C(F)(F)F)S(C)(=O)=O (stereo unspecified)
Focal adhesion kinase 1 [24]
  inhibition: 96.9%
[25]
  half-life: > 3.25 h
Focal adhesion kinase 1 [26]
  inhibition: 84.4%
[27]
  Emax: 85%

## CC(=O)NCCC(=O)Nc1cc(Nc2ncc(Br)c(Nc3ccc(NC(C)=O)cc3NC(C)=O)n2)ccc1OCCF
Focal adhesion kinase 1 [12]
  IC50: 0.0037 µM

## COc1cc2nc(-c3ccc(C(F)(F)F)cc3)cc(OCCCNC3CCN(C)CC3)c2cc1OC
DLD-1
  IC50: 1.79 µM
HCT-116 [1]
  IC50: 3.28 µM

## CCCS(=O)(=O)NCC(=O)N1CCN(c2ccc(Nc3ncc(Cl)c(Nc4ccccc4C(=O)NC)n3)cc2)CC1
HCT-116 [22]
  IC50: 0.17 µM
MDA-MB-231 [23]
  IC50: 0.18 µM
HeLa
  IC50: 0.19 µM
Focal adhesion kinase 1 [12]
  IC50: 0.048 µM
Insulin receptor
  IC50: 0.107 µM

## O=C1CCc2cccc(Oc3nc(Nc4ccc(N5CCN(C(=S)SCCCN6CCOCC6)CC5)cc4)ncc3C(F)(F)F)c21
HCT-116 [22]
  IC50: 0.19 µM
MDA-MB-231 [23]
  IC50: 0.26 µM
HeLa
  IC50: 0.27 µM
Insulin receptor
  IC50: > 1 µM

## CNC(=O)c1ccccc1Nc1nc(Nc2ccc(N3CCOCC3)cc2OC)ncc1Cl
MGC-803 [28]
  Activity: 53.53%

## CNC(=O)c1ccccc1Nc1cc(Nc2ccc(N3CCN(CC(=O)N[C@H](C(=O)N4C[C@H](O)C[C@H]4C(=O)N[C@@H](C)c4ccc(-c5scnc5C)cc4)C(C)(C)C)CC3)cc2OC)ncc1C(F)(F)F
[2]
  DC50: 0.0084 µM

## CNC(=O)c1ccccc1Nc1nc(Nc2ccc(/C=C/C(=O)N3CCOCC3)cc2)ncc1Cl
Focal adhesion kinase 1 [12]
  IC50: 0.0472 µM

Source: ChEMBL document CHEMBL6078619, “Targeting focal adhesion kinase (FAK) in cancer therapy: A recent update on inhibitors and PROTAC degraders” (Eur J Med Chem, 2024)
